In test [1] the target is Muscarinic acetylcholine receptor M3 (Homo sapiens, UniProt P20309).
Test [2] concerns the target Neuronal acetylcholine receptor subunit alpha-4 (Homo sapiens, UniProt P43681).
The target of test [3] is T1, Alpha-1A adrenergic receptor (Homo sapiens, UniProt P35348).
T1 sequence (P35348 whole entry): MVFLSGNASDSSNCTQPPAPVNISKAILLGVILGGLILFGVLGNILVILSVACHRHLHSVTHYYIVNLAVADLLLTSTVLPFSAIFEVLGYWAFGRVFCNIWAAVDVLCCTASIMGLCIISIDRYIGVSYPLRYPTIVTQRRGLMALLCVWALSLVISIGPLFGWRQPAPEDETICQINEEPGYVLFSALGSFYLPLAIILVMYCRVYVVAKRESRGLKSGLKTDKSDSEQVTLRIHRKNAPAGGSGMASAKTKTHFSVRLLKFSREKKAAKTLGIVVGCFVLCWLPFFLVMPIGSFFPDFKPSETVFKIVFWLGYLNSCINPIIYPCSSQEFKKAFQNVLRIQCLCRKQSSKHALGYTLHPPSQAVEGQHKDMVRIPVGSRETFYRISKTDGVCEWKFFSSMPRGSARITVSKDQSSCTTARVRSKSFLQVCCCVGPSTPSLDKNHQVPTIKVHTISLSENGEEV
The class given is functional, cell-based.

Test [4] has as its target T2, Alpha-2B adrenergic receptor (Homo sapiens, UniProt P18089).
T2 sequence (P18089 whole entry): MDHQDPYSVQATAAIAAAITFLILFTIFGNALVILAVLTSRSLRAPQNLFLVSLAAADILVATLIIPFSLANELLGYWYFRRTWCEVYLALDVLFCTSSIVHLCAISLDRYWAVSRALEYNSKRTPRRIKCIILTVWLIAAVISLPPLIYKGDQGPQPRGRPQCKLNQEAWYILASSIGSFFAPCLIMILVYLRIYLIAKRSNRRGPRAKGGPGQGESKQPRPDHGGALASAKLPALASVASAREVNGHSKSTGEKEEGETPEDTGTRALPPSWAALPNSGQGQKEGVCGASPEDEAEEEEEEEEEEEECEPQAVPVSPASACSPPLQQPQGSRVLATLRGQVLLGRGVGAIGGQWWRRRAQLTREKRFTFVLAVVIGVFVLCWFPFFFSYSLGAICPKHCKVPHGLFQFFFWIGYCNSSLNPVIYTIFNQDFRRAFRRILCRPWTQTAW

Test [5] deals with T3, Prostaglandin G/H synthase 1 (Rattus norvegicus, UniProt Q63921).
T3 sequence (Q63921 whole entry): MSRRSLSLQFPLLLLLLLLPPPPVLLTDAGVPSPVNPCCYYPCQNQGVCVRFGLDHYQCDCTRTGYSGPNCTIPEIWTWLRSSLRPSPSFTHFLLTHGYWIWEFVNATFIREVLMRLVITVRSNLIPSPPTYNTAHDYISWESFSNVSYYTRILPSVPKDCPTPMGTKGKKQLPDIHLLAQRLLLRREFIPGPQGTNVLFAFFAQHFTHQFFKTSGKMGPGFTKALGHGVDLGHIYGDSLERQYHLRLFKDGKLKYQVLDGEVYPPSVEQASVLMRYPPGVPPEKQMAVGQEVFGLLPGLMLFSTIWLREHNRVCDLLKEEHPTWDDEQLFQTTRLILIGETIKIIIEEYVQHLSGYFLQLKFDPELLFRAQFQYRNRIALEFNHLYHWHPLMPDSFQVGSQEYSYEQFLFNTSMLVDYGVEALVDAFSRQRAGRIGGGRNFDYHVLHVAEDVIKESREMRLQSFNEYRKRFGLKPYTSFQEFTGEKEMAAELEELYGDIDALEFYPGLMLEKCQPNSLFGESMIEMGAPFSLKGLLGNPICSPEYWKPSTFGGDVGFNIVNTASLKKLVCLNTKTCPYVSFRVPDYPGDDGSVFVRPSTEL
The test is classed as functional.

Test [6] has as its target T4, 5-hydroxytryptamine receptor 1A (Homo sapiens, UniProt P08908).
T4 sequence (P08908 whole entry): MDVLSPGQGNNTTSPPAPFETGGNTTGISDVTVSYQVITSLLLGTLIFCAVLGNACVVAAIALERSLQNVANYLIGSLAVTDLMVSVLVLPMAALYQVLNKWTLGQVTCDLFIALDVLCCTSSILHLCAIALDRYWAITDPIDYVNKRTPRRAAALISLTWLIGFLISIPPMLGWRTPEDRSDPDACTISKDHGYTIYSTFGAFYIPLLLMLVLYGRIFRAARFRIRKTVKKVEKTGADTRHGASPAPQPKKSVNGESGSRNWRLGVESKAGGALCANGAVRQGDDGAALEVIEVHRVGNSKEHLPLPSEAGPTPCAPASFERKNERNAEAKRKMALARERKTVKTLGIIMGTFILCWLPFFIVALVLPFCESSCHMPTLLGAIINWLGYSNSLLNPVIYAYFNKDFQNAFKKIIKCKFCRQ
The class given is functional, cell-based.

The target of test [7] is Delta-type opioid receptor (Homo sapiens, UniProt P41143).
Chain of Delta-type opioid receptor (P41143 whole entry): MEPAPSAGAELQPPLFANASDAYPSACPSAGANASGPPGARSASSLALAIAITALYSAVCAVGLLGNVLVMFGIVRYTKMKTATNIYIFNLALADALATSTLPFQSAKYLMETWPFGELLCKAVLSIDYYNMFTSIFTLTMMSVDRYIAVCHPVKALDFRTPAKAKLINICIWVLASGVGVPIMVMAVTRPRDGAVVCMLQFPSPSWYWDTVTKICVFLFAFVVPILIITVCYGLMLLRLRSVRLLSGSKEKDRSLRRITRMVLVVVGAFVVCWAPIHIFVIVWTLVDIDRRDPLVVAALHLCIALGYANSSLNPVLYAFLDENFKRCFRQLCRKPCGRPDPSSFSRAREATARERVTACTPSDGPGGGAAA
Test [8] has as its target Melanocortin receptor 3 (Homo sapiens, UniProt P41968).
Test [9] addresses T5, Adenosine receptor A1 (Homo sapiens, UniProt P30542).
T5 sequence (P30542 whole entry): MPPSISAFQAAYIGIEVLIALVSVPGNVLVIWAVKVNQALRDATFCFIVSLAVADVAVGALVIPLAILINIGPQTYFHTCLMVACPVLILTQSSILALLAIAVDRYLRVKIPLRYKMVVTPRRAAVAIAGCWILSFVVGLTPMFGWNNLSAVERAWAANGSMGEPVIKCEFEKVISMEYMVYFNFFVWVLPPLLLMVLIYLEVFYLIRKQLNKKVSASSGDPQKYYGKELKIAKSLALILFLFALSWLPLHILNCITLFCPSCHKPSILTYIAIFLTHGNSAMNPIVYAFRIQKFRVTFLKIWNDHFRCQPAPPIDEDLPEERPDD

The target in test [10] is Gamma-aminobutyric acid receptor subunit alpha-1 (Rattus norvegicus, UniProt P62813). The test is classed as functional.
Chain of Gamma-aminobutyric acid receptor subunit alpha-1 (P62813 whole entry): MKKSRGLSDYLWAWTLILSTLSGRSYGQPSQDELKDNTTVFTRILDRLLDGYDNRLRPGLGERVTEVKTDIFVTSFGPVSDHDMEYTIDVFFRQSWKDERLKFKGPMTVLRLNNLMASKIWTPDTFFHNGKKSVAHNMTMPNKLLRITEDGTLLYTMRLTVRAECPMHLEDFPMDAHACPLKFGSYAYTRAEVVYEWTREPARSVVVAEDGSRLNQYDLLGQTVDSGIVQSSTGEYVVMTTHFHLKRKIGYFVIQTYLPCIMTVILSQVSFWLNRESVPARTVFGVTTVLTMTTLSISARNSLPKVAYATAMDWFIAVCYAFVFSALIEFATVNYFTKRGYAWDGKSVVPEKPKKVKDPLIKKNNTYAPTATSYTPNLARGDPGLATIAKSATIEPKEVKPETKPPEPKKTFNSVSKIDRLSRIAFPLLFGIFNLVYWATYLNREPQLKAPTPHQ
The target of test [11] is Histamine H3 receptor (Homo sapiens, UniProt Q9Y5N1).
Chain of Histamine H3 receptor (Q9Y5N1 whole entry): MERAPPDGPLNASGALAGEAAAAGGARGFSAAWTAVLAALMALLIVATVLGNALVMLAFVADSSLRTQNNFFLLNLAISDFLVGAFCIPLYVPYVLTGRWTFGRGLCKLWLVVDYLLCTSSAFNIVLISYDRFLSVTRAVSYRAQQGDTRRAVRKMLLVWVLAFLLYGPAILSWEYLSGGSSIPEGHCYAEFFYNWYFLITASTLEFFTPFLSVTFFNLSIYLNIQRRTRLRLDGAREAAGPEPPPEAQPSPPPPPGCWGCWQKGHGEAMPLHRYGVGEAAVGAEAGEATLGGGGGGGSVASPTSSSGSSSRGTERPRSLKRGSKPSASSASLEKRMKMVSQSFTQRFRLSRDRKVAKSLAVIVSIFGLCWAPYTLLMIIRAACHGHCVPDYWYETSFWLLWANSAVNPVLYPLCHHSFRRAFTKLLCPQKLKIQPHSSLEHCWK
The target of test [12] is Voltage-dependent L-type calcium channel subunit alpha-1C (Rattus norvegicus, UniProt P22002). The class given is functional.
Test [13] has as its target 5-hydroxytryptamine receptor 2B (Homo sapiens, UniProt P41595). The class given is functional, cell-based.
Test [14] deals with Beta-2 adrenergic receptor (Homo sapiens, UniProt P07550).
Chain of Beta-2 adrenergic receptor (P07550 whole entry): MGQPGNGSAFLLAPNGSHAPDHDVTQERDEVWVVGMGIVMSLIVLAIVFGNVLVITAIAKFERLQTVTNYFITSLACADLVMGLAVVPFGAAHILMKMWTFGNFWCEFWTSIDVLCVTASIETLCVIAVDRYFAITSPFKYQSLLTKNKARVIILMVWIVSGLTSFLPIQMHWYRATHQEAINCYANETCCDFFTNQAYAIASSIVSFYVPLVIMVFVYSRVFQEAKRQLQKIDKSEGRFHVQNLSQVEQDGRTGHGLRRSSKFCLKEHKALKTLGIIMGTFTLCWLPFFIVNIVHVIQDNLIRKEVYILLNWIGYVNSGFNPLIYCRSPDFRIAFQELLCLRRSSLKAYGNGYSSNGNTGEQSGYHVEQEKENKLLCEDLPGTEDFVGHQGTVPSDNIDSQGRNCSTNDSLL
Test [15] has as its target Beta-1 adrenergic receptor (Homo sapiens, UniProt P08588). The test is classed as functional.
Note: assay procedure not described here.

Chain of 5-hydroxytryptamine receptor 2B (P41595 whole entry): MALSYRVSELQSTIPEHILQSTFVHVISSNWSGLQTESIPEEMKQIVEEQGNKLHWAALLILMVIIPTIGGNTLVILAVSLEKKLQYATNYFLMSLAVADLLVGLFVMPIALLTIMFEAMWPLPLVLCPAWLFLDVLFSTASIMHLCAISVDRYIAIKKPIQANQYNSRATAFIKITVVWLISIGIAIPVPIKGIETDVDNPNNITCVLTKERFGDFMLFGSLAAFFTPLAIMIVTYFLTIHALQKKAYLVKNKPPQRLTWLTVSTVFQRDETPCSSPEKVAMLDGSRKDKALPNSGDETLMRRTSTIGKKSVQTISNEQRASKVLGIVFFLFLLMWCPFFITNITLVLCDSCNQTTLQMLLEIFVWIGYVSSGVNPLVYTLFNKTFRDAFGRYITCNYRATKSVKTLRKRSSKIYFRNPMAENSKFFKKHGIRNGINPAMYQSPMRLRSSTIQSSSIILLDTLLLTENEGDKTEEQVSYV
Chain of Neuronal acetylcholine receptor subunit alpha-4 (P43681 whole entry): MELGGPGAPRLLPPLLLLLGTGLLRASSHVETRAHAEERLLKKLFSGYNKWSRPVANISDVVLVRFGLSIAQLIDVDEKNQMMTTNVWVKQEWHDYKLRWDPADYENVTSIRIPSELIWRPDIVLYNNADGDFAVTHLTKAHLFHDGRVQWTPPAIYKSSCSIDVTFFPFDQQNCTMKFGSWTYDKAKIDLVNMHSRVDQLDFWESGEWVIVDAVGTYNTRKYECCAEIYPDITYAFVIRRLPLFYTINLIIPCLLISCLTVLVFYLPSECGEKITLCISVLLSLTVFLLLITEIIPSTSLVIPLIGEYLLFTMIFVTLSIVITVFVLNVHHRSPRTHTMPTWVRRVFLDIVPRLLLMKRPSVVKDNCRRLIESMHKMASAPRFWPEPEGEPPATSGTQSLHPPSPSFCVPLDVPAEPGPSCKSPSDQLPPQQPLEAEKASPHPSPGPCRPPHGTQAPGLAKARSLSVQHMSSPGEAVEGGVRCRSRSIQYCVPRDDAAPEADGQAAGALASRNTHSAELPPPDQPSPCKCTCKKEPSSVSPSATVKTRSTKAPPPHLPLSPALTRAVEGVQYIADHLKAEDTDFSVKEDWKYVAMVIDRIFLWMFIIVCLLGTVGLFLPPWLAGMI
Chain of Muscarinic acetylcholine receptor M3 (P20309 whole entry): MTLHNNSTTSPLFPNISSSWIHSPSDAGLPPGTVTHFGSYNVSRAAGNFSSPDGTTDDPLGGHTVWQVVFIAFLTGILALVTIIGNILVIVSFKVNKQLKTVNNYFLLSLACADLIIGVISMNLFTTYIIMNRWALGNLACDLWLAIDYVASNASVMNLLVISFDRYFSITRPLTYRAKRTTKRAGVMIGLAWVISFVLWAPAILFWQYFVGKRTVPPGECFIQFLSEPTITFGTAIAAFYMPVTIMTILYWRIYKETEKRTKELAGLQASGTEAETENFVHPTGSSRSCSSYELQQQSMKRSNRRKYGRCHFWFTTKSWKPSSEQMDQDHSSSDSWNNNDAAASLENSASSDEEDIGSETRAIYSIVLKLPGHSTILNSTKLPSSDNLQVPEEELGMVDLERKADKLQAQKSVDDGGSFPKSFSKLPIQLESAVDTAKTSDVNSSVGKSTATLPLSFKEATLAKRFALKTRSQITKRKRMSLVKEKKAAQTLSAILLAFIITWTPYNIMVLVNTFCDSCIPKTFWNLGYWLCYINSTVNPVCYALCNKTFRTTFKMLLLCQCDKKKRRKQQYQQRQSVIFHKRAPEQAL
Chain of Melanocortin receptor 3 (P41968 whole entry): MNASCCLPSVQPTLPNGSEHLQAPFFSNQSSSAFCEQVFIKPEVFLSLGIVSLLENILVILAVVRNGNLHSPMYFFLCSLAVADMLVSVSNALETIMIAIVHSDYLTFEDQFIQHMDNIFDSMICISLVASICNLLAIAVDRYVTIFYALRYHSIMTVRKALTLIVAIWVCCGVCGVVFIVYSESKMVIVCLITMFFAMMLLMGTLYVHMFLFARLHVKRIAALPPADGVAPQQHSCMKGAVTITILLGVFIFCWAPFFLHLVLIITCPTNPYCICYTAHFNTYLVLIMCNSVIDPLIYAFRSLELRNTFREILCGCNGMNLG
Chain of Beta-1 adrenergic receptor (P08588 whole entry): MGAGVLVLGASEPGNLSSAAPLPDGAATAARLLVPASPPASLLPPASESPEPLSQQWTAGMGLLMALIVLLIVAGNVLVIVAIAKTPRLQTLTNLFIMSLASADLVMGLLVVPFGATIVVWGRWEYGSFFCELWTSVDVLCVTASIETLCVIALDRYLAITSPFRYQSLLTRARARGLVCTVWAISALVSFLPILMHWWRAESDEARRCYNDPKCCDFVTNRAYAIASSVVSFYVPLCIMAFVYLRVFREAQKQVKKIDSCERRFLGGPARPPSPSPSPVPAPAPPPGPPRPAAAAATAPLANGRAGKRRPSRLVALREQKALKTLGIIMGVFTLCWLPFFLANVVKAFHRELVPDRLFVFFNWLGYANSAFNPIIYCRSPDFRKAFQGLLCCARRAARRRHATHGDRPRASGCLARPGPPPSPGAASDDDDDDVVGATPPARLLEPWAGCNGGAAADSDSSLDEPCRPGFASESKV

In general, AC50 refers to the concentration giving half of the maximal activity seen. In the case of `CCCCCNC(=N)N/N=C/c1c[nH]c2ccc(OC)cc12` [TEGASEROD], the concentration at half-maximal activity (AC50) was above 30 µM in [1]; above 30 µM in test [2]; above 30 µM in test [3]; 3.37 µM in test [4]; 25 µM in test [5]; above 30 µM in [6]. For the same compound, the half-maximal activity concentration (AC50) was above 30 µM in test [7]; 11.5 µM in [8]; above 30 µM in [9]; 13 µM in test [10]; 27.2 µM in [11]; above 30 µM in test [12]. The half-maximal activity concentration (AC50) in [13] is above 30 µM; in test [14], 7.36 µM; in [15], 7.02 µM.

Consider `CCOc1ccccc1OCC1CNCCO1` (stereo not given) [VILOXAZINE], for which the AC50 in test [1] is above 10 µM; in [2], above 10 µM; in test [3], above 30 µM; in test [4] it was above 10 µM; in test [5], above 30 µM; in test [6] it was above 10 µM. The half-maximal activity concentration (AC50) in test [7] was above 10 µM; in [8], above 30 µM; in test [9], above 30 µM; in test [10], above 10 µM; in test [11] it was above 10 µM; in [12] it was above 10 µM. In addition, the half-maximal activity concentration (AC50) is above 10 µM in test [13], 7.6 µM in [14] and above 10 µM in test [15].
